Columns and labels:
[1] = target: Maternal embryonic leucine zipper kinase (Homo sapiens) (UniProt Q14680); assay: Selectivity interaction (KinomeScan (DiscoverX)) EUB0000666a MELK; details: at 10 µM
[2] = target: T1, Serine/threonine-protein kinase 3 (Homo sapiens) (UniProt Q13188); details: at 10 µM
T1 sequence (whole entry): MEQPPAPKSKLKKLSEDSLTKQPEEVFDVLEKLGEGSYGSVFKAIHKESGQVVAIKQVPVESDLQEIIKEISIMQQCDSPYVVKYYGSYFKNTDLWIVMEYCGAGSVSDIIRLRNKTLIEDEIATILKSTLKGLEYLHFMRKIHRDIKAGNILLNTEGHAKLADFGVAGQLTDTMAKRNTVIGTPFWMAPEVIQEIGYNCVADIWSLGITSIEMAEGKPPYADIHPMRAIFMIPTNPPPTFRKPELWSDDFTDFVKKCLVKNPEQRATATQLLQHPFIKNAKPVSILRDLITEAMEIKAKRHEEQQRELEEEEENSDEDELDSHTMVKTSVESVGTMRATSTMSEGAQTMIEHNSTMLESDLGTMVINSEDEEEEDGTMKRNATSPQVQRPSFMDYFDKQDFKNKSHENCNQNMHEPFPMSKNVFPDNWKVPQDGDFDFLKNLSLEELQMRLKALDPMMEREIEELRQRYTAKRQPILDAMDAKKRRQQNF

[3] = target: Ribosomal protein S6 kinase alpha-6 (Homo sapiens, UniProt Q9UK32); details: at 10 µM
Sequence of Ribosomal protein S6 kinase alpha-6 (Q9UK32 whole entry): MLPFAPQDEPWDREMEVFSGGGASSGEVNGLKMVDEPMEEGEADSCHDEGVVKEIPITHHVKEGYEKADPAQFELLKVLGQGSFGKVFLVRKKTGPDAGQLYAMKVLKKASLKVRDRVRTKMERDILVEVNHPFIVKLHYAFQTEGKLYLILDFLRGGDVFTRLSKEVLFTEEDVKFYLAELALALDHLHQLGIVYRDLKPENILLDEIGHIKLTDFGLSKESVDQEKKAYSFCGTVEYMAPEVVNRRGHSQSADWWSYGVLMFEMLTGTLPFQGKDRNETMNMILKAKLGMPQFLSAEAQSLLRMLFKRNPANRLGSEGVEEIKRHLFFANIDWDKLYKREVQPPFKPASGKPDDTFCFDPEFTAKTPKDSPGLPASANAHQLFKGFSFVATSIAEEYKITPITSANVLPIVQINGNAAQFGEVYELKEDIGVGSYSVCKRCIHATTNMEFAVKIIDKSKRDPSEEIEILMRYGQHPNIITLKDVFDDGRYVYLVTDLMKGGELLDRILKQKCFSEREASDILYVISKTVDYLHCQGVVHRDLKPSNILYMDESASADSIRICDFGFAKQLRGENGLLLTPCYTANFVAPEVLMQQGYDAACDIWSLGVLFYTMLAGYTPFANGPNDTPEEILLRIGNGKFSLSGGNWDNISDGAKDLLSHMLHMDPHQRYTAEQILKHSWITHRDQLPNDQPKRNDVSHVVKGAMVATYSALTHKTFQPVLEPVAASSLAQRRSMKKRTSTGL

[4] = target: Serine/threonine-protein kinase pim-1 (Homo sapiens, UniProt P11309); assay: Selectivity interaction (KinomeScan (DiscoverX)) EUB0001619a PIM1; details: at 1 µM
Sequence of Serine/threonine-protein kinase pim-1 (P11309 whole entry, looked up): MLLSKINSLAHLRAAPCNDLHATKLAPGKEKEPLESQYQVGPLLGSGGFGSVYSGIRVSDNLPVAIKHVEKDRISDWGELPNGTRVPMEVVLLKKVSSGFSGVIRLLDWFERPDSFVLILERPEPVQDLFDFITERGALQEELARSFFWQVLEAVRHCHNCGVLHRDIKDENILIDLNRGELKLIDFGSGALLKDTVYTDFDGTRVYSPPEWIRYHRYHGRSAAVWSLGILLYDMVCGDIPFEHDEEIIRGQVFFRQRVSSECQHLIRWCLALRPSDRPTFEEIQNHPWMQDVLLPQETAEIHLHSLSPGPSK

[5] = target: Serine/threonine-protein kinase Chk2 (Homo sapiens) (UniProt O96017); assay: Selectivity interaction (KinomeScan (DiscoverX)) EUB0000607a CHEK2; details: at 10 µM
Sequence of Serine/threonine-protein kinase Chk2 (Homo sapiens) (O96017 whole entry): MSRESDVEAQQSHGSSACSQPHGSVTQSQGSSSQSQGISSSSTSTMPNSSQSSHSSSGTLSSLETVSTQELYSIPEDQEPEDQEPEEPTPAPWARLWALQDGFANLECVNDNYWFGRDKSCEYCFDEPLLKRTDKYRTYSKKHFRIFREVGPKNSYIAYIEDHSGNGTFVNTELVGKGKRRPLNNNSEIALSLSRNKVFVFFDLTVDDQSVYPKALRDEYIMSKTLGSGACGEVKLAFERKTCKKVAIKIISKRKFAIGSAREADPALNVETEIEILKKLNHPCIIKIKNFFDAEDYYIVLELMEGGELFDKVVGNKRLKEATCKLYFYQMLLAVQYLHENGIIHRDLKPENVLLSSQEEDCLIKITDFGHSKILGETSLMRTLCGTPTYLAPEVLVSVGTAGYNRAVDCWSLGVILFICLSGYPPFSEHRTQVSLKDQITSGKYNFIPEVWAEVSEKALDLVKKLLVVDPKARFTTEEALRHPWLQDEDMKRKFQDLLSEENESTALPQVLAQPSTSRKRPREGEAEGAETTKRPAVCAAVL

[6] = target: T2, Serine/threonine-protein kinase Nek3 (Homo sapiens) (UniProt P51956); assay: Selectivity interaction (KinomeScan (DiscoverX)) EUB0000607a NEK3; details: at 10 µM
T2 sequence (whole entry): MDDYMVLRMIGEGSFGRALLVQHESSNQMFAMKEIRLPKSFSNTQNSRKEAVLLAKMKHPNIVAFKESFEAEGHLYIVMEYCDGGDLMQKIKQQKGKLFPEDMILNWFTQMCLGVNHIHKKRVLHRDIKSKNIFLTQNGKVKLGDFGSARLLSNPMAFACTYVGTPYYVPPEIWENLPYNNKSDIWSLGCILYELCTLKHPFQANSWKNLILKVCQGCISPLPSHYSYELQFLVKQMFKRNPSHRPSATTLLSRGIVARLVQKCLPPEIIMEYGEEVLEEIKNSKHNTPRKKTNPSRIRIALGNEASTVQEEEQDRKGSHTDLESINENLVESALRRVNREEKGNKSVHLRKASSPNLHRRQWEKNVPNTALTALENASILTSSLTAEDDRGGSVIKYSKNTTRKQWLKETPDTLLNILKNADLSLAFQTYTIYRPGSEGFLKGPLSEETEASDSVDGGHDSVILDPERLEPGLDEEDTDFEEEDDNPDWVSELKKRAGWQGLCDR

[7] = target: Ribosomal protein S6 kinase beta-1 (Homo sapiens, UniProt P23443); assay: Selectivity interaction (KinomeScan (DiscoverX)) EUB0000607a RPS6KB1; details: at 10 µM
Sequence of Ribosomal protein S6 kinase beta-1 (P23443 whole entry, looked up): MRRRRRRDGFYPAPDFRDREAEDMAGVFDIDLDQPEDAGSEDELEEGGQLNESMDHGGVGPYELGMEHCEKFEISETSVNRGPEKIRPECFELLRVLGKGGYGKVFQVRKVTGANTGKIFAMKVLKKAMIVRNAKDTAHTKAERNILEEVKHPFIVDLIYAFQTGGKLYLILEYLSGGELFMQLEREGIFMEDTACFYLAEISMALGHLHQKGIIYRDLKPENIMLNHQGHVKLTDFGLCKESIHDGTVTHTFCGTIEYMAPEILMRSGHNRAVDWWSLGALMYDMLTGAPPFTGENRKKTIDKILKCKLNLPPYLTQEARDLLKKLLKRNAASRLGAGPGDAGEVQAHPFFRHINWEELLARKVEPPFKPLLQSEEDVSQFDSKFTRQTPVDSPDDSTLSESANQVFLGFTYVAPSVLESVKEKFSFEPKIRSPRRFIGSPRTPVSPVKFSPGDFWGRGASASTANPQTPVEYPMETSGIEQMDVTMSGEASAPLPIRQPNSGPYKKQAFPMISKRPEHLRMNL

[8] = target: Calcium/calmodulin-dependent protein kinase type 1D (Homo sapiens) (UniProt Q8IU85); assay: Selectivity interaction (ActivX KiNativ screen (kinase selectivity in THP-1 cell lysates)) EUB0000639a CAMK1D; assay type: subcellular; details: lysate, at 5 µM
Sequence of Calcium/calmodulin-dependent protein kinase type 1D (Homo sapiens) (Q8IU85 whole entry, looked up): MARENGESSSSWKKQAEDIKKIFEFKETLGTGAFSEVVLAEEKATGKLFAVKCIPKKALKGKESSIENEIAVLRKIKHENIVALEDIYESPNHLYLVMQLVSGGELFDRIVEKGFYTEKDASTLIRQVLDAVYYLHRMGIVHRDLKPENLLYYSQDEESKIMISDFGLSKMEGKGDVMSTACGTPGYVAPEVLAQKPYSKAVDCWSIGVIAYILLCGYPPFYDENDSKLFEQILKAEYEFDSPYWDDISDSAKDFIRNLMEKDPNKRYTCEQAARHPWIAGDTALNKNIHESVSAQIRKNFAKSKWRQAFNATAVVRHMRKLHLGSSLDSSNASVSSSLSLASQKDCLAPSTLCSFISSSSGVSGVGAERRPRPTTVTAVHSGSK

[9] = target: T3, Inhibitor of nuclear factor kappa-B kinase subunit beta (Homo sapiens) (UniProt O14920); assay: Selectivity interaction (ActivX KiNativ screen (kinase selectivity in THP-1 cell lysates)) EUB0000639a IKBKB; assay type: subcellular; details: lysate, at 5 µM
T3 sequence (whole entry): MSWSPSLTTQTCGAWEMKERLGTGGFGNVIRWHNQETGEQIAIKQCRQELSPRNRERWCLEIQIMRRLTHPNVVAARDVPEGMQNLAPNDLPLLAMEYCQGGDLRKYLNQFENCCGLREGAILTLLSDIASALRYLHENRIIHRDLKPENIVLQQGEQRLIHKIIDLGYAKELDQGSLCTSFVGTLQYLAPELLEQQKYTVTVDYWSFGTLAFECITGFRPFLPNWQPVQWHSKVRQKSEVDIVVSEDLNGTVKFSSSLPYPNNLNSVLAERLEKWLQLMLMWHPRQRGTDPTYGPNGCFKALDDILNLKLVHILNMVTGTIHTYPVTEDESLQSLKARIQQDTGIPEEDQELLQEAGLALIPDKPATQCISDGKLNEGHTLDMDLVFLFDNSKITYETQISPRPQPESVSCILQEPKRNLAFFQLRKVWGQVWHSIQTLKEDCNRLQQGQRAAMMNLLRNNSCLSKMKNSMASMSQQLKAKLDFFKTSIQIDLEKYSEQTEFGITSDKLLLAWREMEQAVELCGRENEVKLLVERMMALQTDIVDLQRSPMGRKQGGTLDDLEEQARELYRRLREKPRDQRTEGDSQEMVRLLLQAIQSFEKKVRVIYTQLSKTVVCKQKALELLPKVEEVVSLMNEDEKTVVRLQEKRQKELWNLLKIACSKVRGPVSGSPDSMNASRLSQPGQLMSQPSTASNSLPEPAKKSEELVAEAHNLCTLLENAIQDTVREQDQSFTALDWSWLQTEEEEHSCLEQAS

[10] = target: Ribosomal protein S6 kinase alpha-1 (Homo sapiens, UniProt Q15418); assay: Selectivity interaction (ActivX KiNativ screen (kinase selectivity in THP-1 cell lysates)) EUB0000639a RPS6KA1; assay type: subcellular; details: lysate, at 0.2 µM
Sequence of Ribosomal protein S6 kinase alpha-1 (Q15418 whole entry): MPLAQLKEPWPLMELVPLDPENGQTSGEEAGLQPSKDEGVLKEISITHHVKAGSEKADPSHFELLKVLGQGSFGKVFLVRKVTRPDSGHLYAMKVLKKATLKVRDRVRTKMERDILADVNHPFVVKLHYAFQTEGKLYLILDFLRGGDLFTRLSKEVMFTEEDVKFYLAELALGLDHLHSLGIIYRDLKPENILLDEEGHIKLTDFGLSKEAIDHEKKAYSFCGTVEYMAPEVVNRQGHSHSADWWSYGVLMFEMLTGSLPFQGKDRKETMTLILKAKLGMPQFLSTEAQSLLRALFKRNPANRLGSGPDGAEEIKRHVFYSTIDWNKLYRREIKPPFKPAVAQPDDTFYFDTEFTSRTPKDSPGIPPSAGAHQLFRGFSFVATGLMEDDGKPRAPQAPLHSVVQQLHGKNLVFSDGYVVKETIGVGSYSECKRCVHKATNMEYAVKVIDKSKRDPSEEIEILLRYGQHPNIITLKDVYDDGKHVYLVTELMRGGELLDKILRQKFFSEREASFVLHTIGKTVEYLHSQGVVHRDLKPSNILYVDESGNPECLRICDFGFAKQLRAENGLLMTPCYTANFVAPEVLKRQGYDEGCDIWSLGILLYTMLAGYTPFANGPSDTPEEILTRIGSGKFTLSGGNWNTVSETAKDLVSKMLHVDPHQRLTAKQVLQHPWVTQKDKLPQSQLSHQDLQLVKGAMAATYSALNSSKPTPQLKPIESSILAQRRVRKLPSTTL

[11] = target: Macrophage colony-stimulating factor 1 receptor (Homo sapiens) (UniProt P07333); assay: Selectivity interaction (KinomeScan (DiscoverX)) EUB0000699a CSF1R; details: at 10 µM
Sequence of Macrophage colony-stimulating factor 1 receptor (Homo sapiens) (P07333 whole entry, canonical isoform): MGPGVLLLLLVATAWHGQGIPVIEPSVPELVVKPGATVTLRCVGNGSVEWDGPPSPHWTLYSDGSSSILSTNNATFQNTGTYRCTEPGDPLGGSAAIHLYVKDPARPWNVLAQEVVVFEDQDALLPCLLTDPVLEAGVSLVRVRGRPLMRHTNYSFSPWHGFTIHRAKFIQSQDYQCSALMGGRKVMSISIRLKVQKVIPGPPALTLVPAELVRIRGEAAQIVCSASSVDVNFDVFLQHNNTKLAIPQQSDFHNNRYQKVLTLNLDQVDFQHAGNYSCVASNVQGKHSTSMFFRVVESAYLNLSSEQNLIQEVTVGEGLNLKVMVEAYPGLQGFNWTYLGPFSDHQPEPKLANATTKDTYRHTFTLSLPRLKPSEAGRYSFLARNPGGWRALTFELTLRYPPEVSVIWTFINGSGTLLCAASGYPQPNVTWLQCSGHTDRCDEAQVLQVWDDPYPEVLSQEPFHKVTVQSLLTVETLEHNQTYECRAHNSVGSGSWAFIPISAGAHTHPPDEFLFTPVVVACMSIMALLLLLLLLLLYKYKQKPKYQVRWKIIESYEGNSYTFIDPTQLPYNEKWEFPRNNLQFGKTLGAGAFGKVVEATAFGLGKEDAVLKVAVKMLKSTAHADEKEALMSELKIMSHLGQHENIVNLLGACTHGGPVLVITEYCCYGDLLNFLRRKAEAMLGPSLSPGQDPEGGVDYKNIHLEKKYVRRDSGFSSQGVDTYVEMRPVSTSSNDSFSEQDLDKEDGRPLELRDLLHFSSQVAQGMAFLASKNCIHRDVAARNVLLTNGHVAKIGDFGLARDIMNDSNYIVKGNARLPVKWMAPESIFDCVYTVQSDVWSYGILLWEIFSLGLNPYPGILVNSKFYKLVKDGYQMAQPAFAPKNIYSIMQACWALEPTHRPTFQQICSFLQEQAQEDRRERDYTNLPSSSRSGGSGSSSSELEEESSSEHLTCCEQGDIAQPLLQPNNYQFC

[12] = target: Casein kinase I isoform epsilon (Homo sapiens, UniProt P49674); details: at 10 µM
[13] = target: T4, Serine/threonine-protein kinase 17B (Homo sapiens) (UniProt O94768); assay: Selectivity interaction (Ambit KINOMEscan and KiNATiv profiling in Jurkat cells) EUB0000090b STK17B; assay type: cell-based; details: at 1 µM
T4 sequence (whole entry): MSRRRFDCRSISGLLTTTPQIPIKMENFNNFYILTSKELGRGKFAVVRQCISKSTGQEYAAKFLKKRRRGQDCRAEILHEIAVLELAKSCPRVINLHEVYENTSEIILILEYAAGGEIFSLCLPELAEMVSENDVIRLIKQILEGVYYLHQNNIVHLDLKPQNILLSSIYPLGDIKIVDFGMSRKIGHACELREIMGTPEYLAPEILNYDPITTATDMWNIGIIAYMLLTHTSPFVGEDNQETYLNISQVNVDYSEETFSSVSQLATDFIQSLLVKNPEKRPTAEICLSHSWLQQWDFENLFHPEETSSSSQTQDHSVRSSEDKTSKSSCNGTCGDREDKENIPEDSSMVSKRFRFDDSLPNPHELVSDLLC

Sequence of Maternal embryonic leucine zipper kinase (Homo sapiens) (Q14680 whole entry, looked up): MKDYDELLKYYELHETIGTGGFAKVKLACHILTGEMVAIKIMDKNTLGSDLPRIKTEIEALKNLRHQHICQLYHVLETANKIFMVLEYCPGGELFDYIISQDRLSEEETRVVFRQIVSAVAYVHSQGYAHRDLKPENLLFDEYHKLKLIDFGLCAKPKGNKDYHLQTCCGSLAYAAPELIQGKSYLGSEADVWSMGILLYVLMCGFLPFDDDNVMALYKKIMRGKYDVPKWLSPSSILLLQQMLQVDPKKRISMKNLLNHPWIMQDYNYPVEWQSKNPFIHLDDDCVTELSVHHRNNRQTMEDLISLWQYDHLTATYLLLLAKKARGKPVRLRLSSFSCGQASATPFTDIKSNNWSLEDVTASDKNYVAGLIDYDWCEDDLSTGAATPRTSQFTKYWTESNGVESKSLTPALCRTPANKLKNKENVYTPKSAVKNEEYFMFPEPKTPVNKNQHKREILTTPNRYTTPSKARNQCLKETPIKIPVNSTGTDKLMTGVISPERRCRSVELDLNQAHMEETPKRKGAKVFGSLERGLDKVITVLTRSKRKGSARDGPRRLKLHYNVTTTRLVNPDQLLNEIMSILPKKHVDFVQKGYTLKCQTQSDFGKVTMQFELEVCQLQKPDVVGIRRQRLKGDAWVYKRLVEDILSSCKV

O=C(NOC[C@H](O)CO)c1ccc(F)c(F)c1Nc1ccc(I)cc1F
% of control [1]: 80%

Cc1cc([C@@H](C)Nc2ccccc2C(=O)O)c2nc(N3CCOCC3)cc(=O)n2c1 [AZD-6482]
% of control [2]: 66% | % of control [3]: 100%

N#Cc1cccc(-c2c[nH]c3ncnc(N4CCOCC4)c23)c1
% of control [4]: 100%

CNC(=O)Nc1ccc(-c2nc(N3CC4CCC(C3)O4)c3cnn(C4CCC5(CC4)OCCO5)c3n2)cc1
% of control [5]: 84% | % of control [6]: 100% | % of control [7]: 100%

CC[C@@H]1[C@H](F)C(=O)N[C@@H]1COc1nccc2cc(C(N)=O)c(OC)cc12 [ZIMLOVISERTIB]
% of inhibition [8]: 16.3% | % of inhibition [9]: -9.2% | % of inhibition [10]: -3.6%

CCN(CC)CCCCNc1ncc2cc(-c3cc(OC)cc(OC)c3)c(NC(=O)NC(C)(C)C)nc2n1
% of control [11]: 6.6% | % of control [12]: 100%

CN(C)C/C=C/C(=O)Nc1ccc(C(=O)N2CCCC(Nc3ncc(Cl)c(-c4c[nH]c5ccccc45)n3)C2)cc1 (stereo not drawn)
% of control [13]: 81%

Reference: ChEMBL document CHEMBL5465560, “Selectivity Literature for EUbOPEN Chemogenomic Library” (2024)
